Test results published in patent US12472269B2, “Liver-specific inducible promoters and methods of use thereof” (ASKBIO INC., priority 2019, dated 2025).

How the values were obtained:
[1] = system: Huh7 cells; assay: EPO expression (ELISA of medium) from PB1-MinTK in Huh7 cells with CAR-containing plasmid, induction by CITCO; assay type: cell-based, human
Source text: • Huh7 cells which are a human liver cell line • DPBS: without CaCl2, without MgCl2 (Gibco, 14190-094) • DMEM (Sigma, D6546) • FBS (Sigma, F9665) • Pen-Strep (Sigma, P4333) • Promega Fugene-HD (E2311) • TCPOBOP (Sigma, T2320) • CITCO (Cayman Chemicals Company, 16027) • pcDNA6 plasmid which contains the β-galactosidase gene used as internal control for transfection efficiency (Thermofisher, V22020) • mouse CAR expression plasmid from Jouan et al, 2016 (BioCat GmbH, EX-Z4288-M51-10-GC). This was used as Huh7 is CAR deficient. • β-galactosidase substrate solution (Thermofisher, 75707/75710) • Pierce BCA kit (23225) • LARII (Dual Luciferase Reporter 1000 assay system, Promega, E1980) • EPO ELISA kit (Abcam, ab119522) Method: Day 1 • Cells were seeded onto a 48 well plate at a density of 25,000 cells/300 μl Day 2 • On the day of transfection, DNA to be transfected (CAR plasmid/PB1-MinTK operably linked with luciferase or EPO/pcDNA6 plasmid for internal control) was diluted to a 100 ng/μl stock solution. Per 48 Well Transfection: • 45 ng of DNA (15 ng of each plasmid, pcDNA6, CAR and test plasmid) was mixed with 4.1 μl of Optimem medium. • 0.5 μl of Fusion HD was mixed with 4 μl of Optimem medium. • These 2 solutions were mixed and incubated at room temperature for 15 minutes. • The final solution was then added to the well drop wise. • 3 hrs after transfection, the inducer TCPOBOP was added to the appropriate wells at the indicated concentration. Day 3 • 24 hrs after induction the media was removed from the cells. • The cells were washed once in 300 μl of DPBS • Cells were lysed using 100 μl of passive lysis buffer and incubation with rocking for 15 minutes • The cell debris was pelleted by centrifugation of the plate at max speed in a benchtop centrifuge for 1 min • For luciferase, 10 μl sample was transferred into white 96-well plate and luminescence measured by injection of 50 μl of LARII substrate. • β-galactosidase activity was measured as per manufacturer's instructions (Mammalian β-Galactosidase Assay Kit, 75707/75710, Thermo Scientific) using 25 μl of lysate. 25 μl of lysate was transferred into a microplate well and mixed with 25 μl of β-galactosidase Assay Reagent, equilibrated to room temperature. The mixture was incubated at 37° C. for 30 min and absorbance measured at 405 nm. • Protein concentration was measured as per manufacturer's instructions (Pierce™ BCA Protein Assay Kit, 23225/23227, Thermo Scientific) using 25 μl of lysate. 25 μl of lysate was transferred into a microplate well and mixed with 200 μl of working solution. The mixture was incubated at 37° C. for 30 min, cooled to room temperature and then absorbance measured around 562 nm. The protein concentration was calculated with respect to protein standard curve prepared from assaying standards with known protein concentration.
Transfections with PB1-MinTk-EPO were performed as described above with the exception that EPO is secreted into the medium. Therefore, medium was collected, and EPO concentration measured as per manufacturer's instructions (ab119522 Erythropoietin (EPO) Human ELISA Kit, Abcam) using an ELISA assay. 50 μl of medium was transferred to a pre-washed microplate wells and mixed with 50 μl of 1× Biotin Conjugated Antibody. The mixture was incubated at room temperature for 1 hour. The wells were washed, 100 μl of Streptavadin-HRP was added and the plate was incubated at room temperature for 15 minutes. The wells were washed and then 100 μl of TMB Substrate Solution. The mixture was incubated at room temperature for 10 minutes. The enzyme reaction was stopped by addition of 100 μl of Stop Solution and absorbance was read at 450 nm. The EPO concentration was calculated with respect to EPO standard curve prepared from assaying standards with known EPO concentration.
The PB1-MinkTK promoter was then used to drive expression of the protein EPO, which is of therapeutic interest. […]

[2] = target: T1, human CAR (Homo sapiens, UniProt Q14994); details: cited from earlier work
T1 sequence (Q14994 1-352): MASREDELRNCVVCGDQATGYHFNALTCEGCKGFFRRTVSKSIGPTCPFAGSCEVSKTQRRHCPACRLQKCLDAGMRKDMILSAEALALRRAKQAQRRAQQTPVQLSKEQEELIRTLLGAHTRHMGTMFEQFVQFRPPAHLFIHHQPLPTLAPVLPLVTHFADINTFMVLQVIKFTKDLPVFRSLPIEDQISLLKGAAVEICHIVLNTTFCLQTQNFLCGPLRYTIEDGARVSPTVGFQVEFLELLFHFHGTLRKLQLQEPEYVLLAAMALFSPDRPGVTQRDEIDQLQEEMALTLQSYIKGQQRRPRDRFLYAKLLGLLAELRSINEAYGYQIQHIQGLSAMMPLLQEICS

[3] = system: Huh7 cell line stably expressing human CAR; assay: Induction of PBREM variants by CITCO and flavone in Huh7 cell line stably expressing human CAR; assay type: cell-based
Source text: (§1) In the earlier examples, variants of the promoters used contained a mouse PBREM element. To confirm our expectation that the human PBREM element could also be used, we also assessed the inducibility of the human PBREM; this is potentially relevant because one aim of this project is to provide inducible promoters for use in human gene therapy, and the human sequence may have some advantages. In addition, we also assessed human and mouse hybrids of the PBREM element to determine if we could modulate or improve the inducibility and background level of the promoters. Such new combinations would not be found in nature in any context, and would likely to have novel traits, e.g. background and induction level. The constructs were tested in the PGL4.10 backbone as previously described, and are listed below in Table 2. These were: Human NR1×3-Min TK (3× human NR1 region with MinTK minimal promoter); Human PBREM-minTK (human PBREM with MinTK minimal promoter); hNR1-mNF1-hNR2-Min TK (Human Mouse Human hybrid with MinTK minimal promoter); hNR1-mNFI mNR2-Min TK (Human Mouse Mouse hybrid with MinTK minimal promoter); mNR1-hNF1-mNR2-Min TK (Mouse Human Mouse hybrid with MinTK minimal promoter); mNR1-hNF1-hNR2-Min TK (Mouse Human Human hybrid with MinTK minimal promoter); hPB-SV40 (human PBREM with SV40 minimal promoter); and MHM-SV40 (Mouse Human Mouse hybrid with SV40 minimal promoter)—SEQ ID NOs: 59 to 66, respectively.
(§2) These constructs were tested in the Huh7 stable cell line and primary hepatocytes as previously described. In addition, to testing the constructs with the traditional human CAR activator CITCO we also tested the natural compound flavone. […] CITCO has been predicted to be relatively unstable in vivo, and there is no data available for its safety of use in humans, and is therefore preferred for use only in tissue culture. Furthermore, the in vivo results presented above used phenobarbital as the inducer. In some contexts the use of phenobarbital may be undesirable, even if at 10× less than the recommended dose (which appears to be possible in view of the data above). Therefore, flavone may be a more desirable inducer that mitigates any safety or regulatory issues.
(§3) Expression and induction from these promoters was assessed using both CITCO and flavone in both the Huh7 CAR expressing stable cell line and primary hepatocytes as previously described.

[4] = system: primary hepatocytes; assay: Induction of PBREM variants by CITCO and flavone in primary hepatocytes; assay type: cell-based, human
Source text: as §1, §2, §3

[5] = monomers compared with PB1 (FIG. 9), multimers with PB1-2 (FIG. 11)
[6] = monomers compared with PB1 (FIG. 10), multimers with PB1-2 (FIG. 12)

## Clc1ccc(-c2nc3sccn3c2C=NOCc2ccc(Cl)c(Cl)c2)cc1 [CITCO, 6-(4Chlorophenyl)imidazo[2,1-b][1,3]thiazole-5-carbaldehyde-O-(3,4-dichlorobenzyl)oxime, reference compound]
[1]; 22% vs 40% of CMV-IE with PB1-MinTK
  strength as inducer of CAR activity: weaker inducer of CAR activity than TCPOBOP

## Clc1cnc(Oc2ccc(Oc3ncc(Cl)cc3Cl)cc2)c(Cl)c1 [TCPOBOP, 1,4-Bis[2-(3,5-dichloropyridyloxy)]benzene]
[2]
  activation of human CAR: does not activate human CAR

## O=c1cc(-c2ccccc2)oc2ccccc12 [flavone, reference compound]
[3]; administered to cells
  concentration demonstrated suitable to induce expression: 30 µM
[2]
  activation of human CAR: previously been reported to activate human CAR

## CMV-MP: CMV minimal promoter driving EPO in pGL4.10, SEQ ID NO: 54 [reference compound]
[1]; 0.5 μM, 1 μM, 2 μM and 3 μM CITCO
  change of EPO expression on addition of CITCO: does not change the EPO expression

## MHM hybrid: Mouse Human Mouse hybrid PBREM element (SEQ ID NO: 74), tested with Min-Tk and SV40 minimal promoters (DNA TCTGTACTTTCCTGACCTTGAAGAGGTGGCACCATCAACTTGCCTGACACC; expressed or natural sequence)
[3]; CITCO and flavone
  induction: good induction
[3]; [5]
  background: lower background
  overall activity / expression level: lower overall activity
[4]; CITCO and flavone
  induction: good induction
[4]; [6]
  background: lower background
  overall activity / expression level: lower overall activity

## hPB: human PBREM element (SEQ ID NO: 2), tested with Min-TK and SV40 minimal promoters (DNA ACTGTACTTTCCTGACCCTGAAGAGGTGGCAGCATGGACTTTCCTGAACCA; expressed or natural sequence; listed as Homo sapiens)
[3]; CITCO and flavone, FIG. 9
  performance (inducibility and background) compared with PB1: almost identical manner to the mouse PBREM (PB1)
[4]; CITCO and flavone, FIG. 10
  performance (inducibility and background) compared with PB1: almost identical manner to the mouse PBREM (PB1)

B1: Human NR1x3-MinTK: 3× human NR1 region with MinTK minimal promoter, SEQ ID NO: 59 (nucleic acid)
DNA: ACTGTACTTTCCTGACCCTGAAGAGACTGTACTTTCCTGACCCTGAAGAGACTGTACTTTCCTGACCCTGAAGAGGATCCGGCCCCGCCCAGCGTCTTGTCATTGGCGAATTCGAACACGCAGATGCAGTCGGGGCGGCGCGGTCCGAGGTCCACTTCGCATATTAAGGTGACGCGTGTGGCCTCGAACACCGAGCGACCCTGCAGCGACCCGCTTAACAGCGTCAACAGCGTGCCGCAGATCTCGAGGAGCTTGGCGAGATTTTCAGGAGCT
modifications: Human NR1x3-Min TK
[3]; CITCO and flavone
  induction: only induced in the stable cell line
[3]; [5]
  background: relatively high background
[4]; CITCO and flavone
  induction: less so in the primary cells
[4]; [6]
  background: relatively high background
